Measurements as given in publication PMC6178183, “Development of a HPLC-MS/MS Method to Determine 11 Bioactive Compounds in Tongmai Yangxin Pill and Application to a Pharmacokinetic Study in Rats” (Evidence-based Complementary and Alternative Medicine : eCAM, 2018).
“And” between values parts separate entries of the source, which are not always exact repeats. Identical values can stand only once.

Legend:
[1] = set-up: method as in PMID 25943824; conditions: active ingredients of TMYX with high R values; cited from earlier work
[2] = Pharmacokinetic study in rats after oral administration of TMYX extract (HPLC-MS/MS of plasma); format: in vivo, Sprague–Dawley rats; conditions: rat plasma; for AUC(0-inf) / half-life / AUC / k el: male, Sprague-Dawley; for AUC: read-out: AUC (0-tn); for k el: read-out: K e (converted); for T max1: n=6, mean ± SD
Procedure: The HPLC-MS/MS system consists of an Agilent 1200 high-performance liquid chromatography coupled with an Aglient 6430 series triple quadrupole mass spectrometer with an electrospray ionization (ESI) source. The chromatographic separation was achieved on a CORTECS C18 column (4.6 mm × 150 mm, 2.7 μm), and the column temperature was kept at 30°C. Mobile phases which consisted of 0.1% formic acid in water (A) and acetonitrile (B) were used in the following gradient elution method: 0-10 min, 10%-85% B; 10-13 min, 85%-95% B; 13-19 min, 95%-95% B. The flow rate was set at 0.3 mL/min, and the injection volume was 10 μL. All data were analyzed by Mass Hunter workstation software (Agilent Technologies, USA).
The mass spectrometer was carried out in both positive and negative ionization multiple-reaction monitoring (MRM) mode. The source parameters were as follows: the capillary voltage set at 300 V for positive ionization mode and -300 V for negative ionization mode, the drying gas temperature was 320°C, the flow was 11 L/min, and nebulizing gas pressure was 30 psi.
The plasma (100 μL) was spiked with 20 μL of methanol, 20 μL of the IS (icariin, 1 μg/mL), and 20 μL of formic acid and then vortex-mixed. The mixture was extracted with 800 μL of ethyl acetate by vortex mixing for 5 min at room temperature. After centrifugation at 14,000 rpm for 10 min, the supernatant was collected to a clean tube and evaporated to dryness under a nitrogen stream. The residue was reconstituted in 50 μL of 50% methanol, vortexed for 5 min, and centrifuged at 14,000 rpm for 10 min. Finally, 10 μL supernatant was injected into the LC-MS/MS system for analysis.
Male Sprague–Dawley rats (230-250 g) were obtained from Beijing HFK Experimental Animal Technology Co., Ltd. The rats were maintained under the control environmental conditions and they fasted for 12 h with free access to water before the experiments. TMYX extracts were dissolved in CMC-Na and administrated orally to rats at 8.3 g/kg. The blood samples (200 μL) were collected from the rat fossa orbitalis vein at 0, 0.03, 0.083, 0.17, 0.25, 0.5, 1, 2, 4, 6, 8, 10, 12, 24, 36, and 48 h after oral administration to heparinized tubes. And then the blood samples were centrifuged at 7,000 rpm for 10 min to get the plasma sample immediately. Finally, the plasma obtained was stored at −70°C until analysis. Pharmacokinetic parameters were calculated by the computer program “Drug and Statistics 2.0” (DAS 2.0) (Medical College of Wannan, China).

[3] = Stability of analytes in rat plasma QC samples under storage conditions; format: in vitro ADME; conditions: n=6, gallic acid, ononin, schisandrin, stilbene glycoside, liquiritigenin, rhein, verbascoside; for Measured Concentration, auto-sampler for 12 h: prepared rat plasma samples; for Measured Concentration, -70°C for 14 days / Measured Concentration, room temperature for 6 h / Measured Concentration, three freeze-thaw cycles: rat plasma
Procedure: Quality control (QC) samples at three concentrations (low, medium, and high concentration) were made up of appropriate mixed standard solutions with blank blood sample as calibration solutions to meet the required concentrations. All the solutions were kept at 4°C.
The stability of analytes in plasma samples was determined by analyzing QC samples of three concentration levels at different conditions: stored at autosampler for 12 h, at room temperature for 6 h, under three freeze-thaw cycles and stored at -70°C for 14 days. All stability studies were measured in six replicates.

[4] = oral TMYX extract 8.3 g/kg single dose, n=6
[5] = oral TMYX extract 8.3 g/kg single dose
[6] = high QC: spiked 2000 ng/mL glycyrrhizic acid, 1000 liquiritin, 200 emodin, 100 isoliquiritigenin
[7] = low QC: spiked 20 ng/mL glycyrrhizic acid, 10 liquiritin, 2 emodin, 1 isoliquiritigenin
[8] = medium QC: spiked 200 ng/mL glycyrrhizic acid, 100 liquiritin, 20 emodin, 10 isoliquiritigenin
[9] = second peak, oral TMYX extract 8.3 g/kg single dose, n=6

## COc1ccc(-c2coc3cc(O)ccc3c2=O)cc1 [formononetin]
[1]
  antiinflammatory effects: exert antiinflammatory effects in a dose-dependent manner

## O=C(O)c1cc(O)c(O)c(O)c1 [gallic acid]
[2]; [4]
  AUC(0-inf): 0.238 ± 0.173 µg·h/mL
  half-life: 3.01 ± 1.35 h
  AUC: 0.215 ± 0.137 µg·h/mL
  k el: 7.5e-05 s⁻¹
  C max1: 0.0569 ± 0.0428 µg/mL
[2]; [5]
  T max1: 0.75 ± 0.67 h
[3]; [6]
  Measured Concentration, auto-sampler for 12 h: 184.54 ± 2.46 ng/mL
  Measured Concentration, -70°C for 14 days: 199.19 ± 1.80 ng/mL
  Measured Concentration, room temperature for 6 h: 205.97 ± 2.14 ng/mL
  Measured Concentration, three freeze-thaw cycles: 196.77 ± 1.09 ng/mL
[3]; [7]
  Measured Concentration, auto-sampler for 12 h: 2.03 ± 0.05 ng/mL
  Measured Concentration, -70°C for 14 days: 1.99 ± 0.04 ng/mL
  Measured Concentration, room temperature for 6 h: 1.97 ± 0.03 ng/mL
  Measured Concentration, three freeze-thaw cycles: 1.93 ± 0.04 ng/mL
[3]; [8]
  Measured Concentration, auto-sampler for 12 h: 19.27 ± 0.35 ng/mL
  Measured Concentration, -70°C for 14 days: 19.26 ± 0.22 ng/mL
  Measured Concentration, room temperature for 6 h: 20.77 ± 1.09 ng/mL
  Measured Concentration, three freeze-thaw cycles: 20.08 ± 0.51 ng/mL

## COc1cc2c(c(OC)c1OC)-c1c3cc4c(c1OC[C@@H](C)[C@@](C)(O)C(=O)O[C@@H]2[C@@](C)(O)[C@@H](C)C3)OCO4 [gomisin D]
[1]
  antiinflammatory effects: exert antiinflammatory effects in a dose-dependent manner

## O=C(/C=C/c1ccc(O)cc1)c1ccc(O)cc1O [isoliquiritigenin]
[2]; [4]
  AUC(0-inf): 0.436 ± 0.154 µg·h/mL
  half-life: 13.5 ± 8.33 h
  AUC: 0.41 ± 0.131 µg·h/mL
  k el: 1.94e-05 s⁻¹
  C max1: 0.0416 ± 0.0242 µg/mL
[2]; 48 h after oral TMYX extract 8.3 g/kg
  detection in vivo at 48 h: can still be detected in vivo at 48 h
[2]; oral TMYX extract 8.3 g/kg
  peaks in the mean plasma concentration-time profile: double peaks
[2]; [5]
  T max1: 0.28 h and 0.28 ± 0.11 h
[2]; [9]
  C max2: 0.0249 ± 0.0135 µg/mL
  T max2: 7.00 h and 7.00 ± 2.45 h
[3]; [6]
  Measured Concentration, auto-sampler for 12 h: 97.47 ± 1.99 ng/mL
  Measured Concentration, -70°C for 14 days: 100.74 ± 2.95 ng/mL
  Measured Concentration, room temperature for 6 h: 106.11 ± 0.78 ng/mL
  Measured Concentration, three freeze-thaw cycles: 100.58 ± 0.91 ng/mL
[3]; [7]
  Measured Concentration, auto-sampler for 12 h: 1.00 ± 0.02 ng/mL
  Measured Concentration, -70°C for 14 days: 0.89 ± 0.01 ng/mL
  Measured Concentration, room temperature for 6 h: 0.99 ± 0.01 ng/mL
  Measured Concentration, three freeze-thaw cycles: 0.89 ± 0.02 ng/mL
[3]; [8]
  Measured Concentration, auto-sampler for 12 h: 9.60 ± 0.04 ng/mL
  Measured Concentration, -70°C for 14 days: 8.62 ± 0.04 ng/mL
  Measured Concentration, room temperature for 6 h: 10.86 ± 0.60 ng/mL
  Measured Concentration, three freeze-thaw cycles: 8.69 ± 0.14 ng/mL

## O=C1C[C@@H](c2ccc(O[C@@H]3O[C@H](CO)[C@@H](O)[C@H](O)[C@H]3O)cc2)Oc2cc(O)ccc21 [liquiritin]
[2]; [4]
  AUC(0-inf): 0.651 ± 0.22 µg·h/mL
  half-life: 2.16 ± 1.44 h
  AUC: 0.637 ± 0.22 µg·h/mL
  k el: 0.000214 s⁻¹
  C max1: 0.1999 ± 0.1202 µg/mL
[2]; [5]
  T max1: 0.50 ± 0.46 h
[3]; [6]
  Measured Concentration, auto-sampler for 12 h: 869.12 ± 14.52 ng/mL
  Measured Concentration, -70°C for 14 days: 1021.69 ± 19.98 ng/mL
  Measured Concentration, room temperature for 6 h: 1076.07 ± 10.27 ng/mL
  Measured Concentration, three freeze-thaw cycles: 952.89 ± 11.22 ng/mL
[3]; [7]
  Measured Concentration, auto-sampler for 12 h: 10.26 ± 0.11 ng/mL
  Measured Concentration, -70°C for 14 days: 10.04 ± 0.12 ng/mL
  Measured Concentration, room temperature for 6 h: 9.85 ± 0.09 ng/mL
  Measured Concentration, three freeze-thaw cycles: 9.26 ± 0.16 ng/mL
[3]; [8]
  Measured Concentration, auto-sampler for 12 h: 108.02 ± 0.66 ng/mL
  Measured Concentration, -70°C for 14 days: 105.05 ± 1.73 ng/mL
  Measured Concentration, room temperature for 6 h: 108.97 ± 1.51 ng/mL
  Measured Concentration, three freeze-thaw cycles: 109.67 ± 1.86 ng/mL

## COc1ccc(-c2coc3cc(O[C@@H]4O[C@H](CO)[C@@H](O)[C@H](O)[C@H]4O)ccc3c2=O)cc1 [ononin]
[1]
  antiinflammatory effects: exert antiinflammatory effects in a dose-dependent manner
[2]; [4]
  AUC(0-inf): 0.0694 ± 0.0285 µg·h/mL
  half-life: 2.85 ± 1.4 h
  AUC: 0.0582 ± 0.0202 µg·h/mL
  k el: 0.000103 s⁻¹
  C max1: 0.0144 ± 0.0068 µg/mL
[2]; [5]
  T max1: 0.46 ± 0.10 h
[3]; [6]
  Measured Concentration, auto-sampler for 12 h: 195.34 ± 4.30 ng/mL
  Measured Concentration, -70°C for 14 days: 200.23 ± 3.89 ng/mL
  Measured Concentration, room temperature for 6 h: 216.32 ± 0.91 ng/mL
  Measured Concentration, three freeze-thaw cycles: 191.28 ± 2.36 ng/mL
[3]; [7]
  Measured Concentration, auto-sampler for 12 h: 1.83 ± 0.01 ng/mL
  Measured Concentration, -70°C for 14 days: 1.95 ± 0.01 ng/mL
  Measured Concentration, room temperature for 6 h: 2.02 ± 0.03 ng/mL
  Measured Concentration, three freeze-thaw cycles: 1.85 ± 0.01 ng/mL
[3]; [8]
  Measured Concentration, auto-sampler for 12 h: 18.84 ± 0.62 ng/mL
  Measured Concentration, -70°C for 14 days: 18.51 ± 0.15 ng/mL
  Measured Concentration, room temperature for 6 h: 20.57 ± 0.26 ng/mL
  Measured Concentration, three freeze-thaw cycles: 18.71 ± 0.26 ng/mL

## O=C(O)c1cc(O)c2c(c1)C(=O)c1cccc(O)c1C2=O [rhein]
[2]; [4]
  AUC(0-inf): 0.152 ± 0.0613 µg·h/mL
  half-life: 2.84 ± 2.13 h
  AUC: 0.145 ± 0.0526 µg·h/mL
  k el: 0.000156 s⁻¹
  C max1: 0.0463 ± 0.0156 µg/mL
[2]; [5]
  T max1: 0.36 ± 0.31 h
[3]; [6]
  Measured Concentration, auto-sampler for 12 h: 97.32 ± 1.05 ng/mL
  Measured Concentration, -70°C for 14 days: 85.95 ± 0.39 ng/mL
  Measured Concentration, room temperature for 6 h: 101.97 ± 1.07 ng/mL
  Measured Concentration, three freeze-thaw cycles: 86.7 ± 1.33 ng/mL
[3]; [7]
  Measured Concentration, auto-sampler for 12 h: 0.97 ± 0.01 ng/mL
  Measured Concentration, -70°C for 14 days: 0.95 ± 0.05 ng/mL
  Measured Concentration, room temperature for 6 h: 0.97 ± 0.02 ng/mL
  Measured Concentration, three freeze-thaw cycles: 0.98 ± 0.03 ng/mL
[3]; [8]
  Measured Concentration, auto-sampler for 12 h: 9.86 ± 0.09 ng/mL
  Measured Concentration, -70°C for 14 days: 8.71 ± 0.11 ng/mL
  Measured Concentration, room temperature for 6 h: 10.23 ± 0.04 ng/mL
  Measured Concentration, three freeze-thaw cycles: 8.89 ± 0.08 ng/mL

## C[C@@H]1O[C@@H](O[C@@H]2[C@@H](O)[C@H](OCCc3ccc(O)c(O)c3)O[C@H](CO)[C@H]2OC(=O)/C=C/c2ccc(O)c(O)c2)[C@H](O)[C@H](O)[C@H]1O [verbascoside]
[2]; [4]
  AUC(0-inf): 0.061 ± 0.0298 µg·h/mL
  half-life: 1.53 ± 0.67 h
  AUC: 0.0514 ± 0.0298 µg·h/mL
  k el: 0.000156 s⁻¹
  C max1: 0.0234 ± 0.0087 µg/mL
[2]; [5]
  T max1: 0.37 ± 0.18 h
[3]; [6]
  Measured Concentration, auto-sampler for 12 h: 93.52 ± 0.27 ng/mL
  Measured Concentration, -70°C for 14 days: 107.40 ± 1.47 ng/mL
  Measured Concentration, room temperature for 6 h: 103.95 ± 1.33 ng/mL
  Measured Concentration, three freeze-thaw cycles: 108.42 ± 1.17 ng/mL
[3]; [7]
  Measured Concentration, auto-sampler for 12 h: 1.05 ± 0.02 ng/mL
  Measured Concentration, -70°C for 14 days: 1.01 ± 0.02 ng/mL
  Measured Concentration, room temperature for 6 h: 0.92 ± 0.01 ng/mL
  Measured Concentration, three freeze-thaw cycles: 1.09 ± 0.01 ng/mL
[3]; [8]
  Measured Concentration, auto-sampler for 12 h: 9.50 ± 0.04 ng/mL
  Measured Concentration, -70°C for 14 days: 9.81 ± 0.22 ng/mL
  Measured Concentration, room temperature for 6 h: 9.57 ± 0.21 ng/mL
  Measured Concentration, three freeze-thaw cycles: 10.17 ± 0.90 ng/mL
